Two molecules from publication PMC12432435, “Not only an inhibitor: Trehalose enhances the catalytic action exerted on oxaloacetate by rabbit lactate dehydrogenase” (Protein Science : A Publication of the Protein Society, 2025) can be followed below.

In experiment [1] the target is T1, rabbit muscle lactate dehydrogenase (rbLDH, LDH-A) (Oryctolagus cuniculus, UniProt P13491).
T1 construct: gene LDHA; tetrameric enzyme from rabbit skeletal muscle
In words: stopped-flow tryptophan fluorescence quenching (FRET), association and dissociation kinetics. The settings on record: read-out: stopped-flow tryptophan fluorescence quenching (FRET), association and dissociat. In kind it is binding.

Experiment [2] addresses T1, rabbit muscle lactate dehydrogenase (rbLDH, LDH-A). In words: stopped-flow tryptophan fluorescence quenching of the rbLDH•β-NADH complex. In kind it is binding.

For the molecule `NC(=O)C1=CN([C@@H]2O[C@H](COP(=O)(O)OP(=O)(O)OC[C@H]3O[C@@H](n4cnc5c(N)ncnc54)[C@H](O)[C@@H]3O)[C@@H](O)[C@H]2O)C=CC1` [β-NADH], the kon in experiment [1] is 1.17e+08 M⁻¹ s⁻¹. Regarding `NC(=O)C(=O)O` [oxamate], the “Control / k obs” value in experiment [2] is 642 ± 19 s⁻¹.
